According to PMC8745124, “The Potential Antimicrobial Action of Human Mucin 7 15-Mer Peptide and Its Metal Complexes” (International Journal of Molecular Sciences, 2021):
Converted amounts (≈) assume the structure as drawn. Like-named read-outs stand apart in the source and are kept apart here. No end group written: not given here.

What was measured:
[1] = test system: P. aeruginosa; details: Table S7, cited from earlier work
Experimental: (§1) page 13: Table S5. Experimentally measured molar extinction coefficients (ε) and absorbance maxima (λmax) for L1, L2 and L3 which concentration was determined by UV-Vis. Solvent HEPES buffer (50 mM. I = 0.16 M).Path length = 1 cm.T = 25°C. λmax [nm] ε [M-1cm-1] L1 275.5 1076 L2 280 1062 L3 275.5 1077 Table S6. Antimicrobial activity of the […] (L1), […] (L2) and […] (L3) and their metal(II) complexes against pathogenic microorganisms. Values are the average of three independent experiments performed in three wells. Ligands/ E. faecalis S. epidermidis E. coli ...

[2] = test system: E. coli; details: Table S7, cited from earlier work
Experimental: as §1

[3] = test system: E. faecalis; details: Table S7, cited from earlier work
Text: (§2) Values are the average of three independent experiments performed in three wells.

[4] = test system: C. albicans ATCC 10231; type: cell-based, Candida albicans; details: ATCC 10231, 24 h
Experimental: (§3) The antimicrobial properties of three peptides (L1, L2, L3) and metal(II) complexes (molar ratio, 1:1) were tested on human pathogenic strains. E. coli ATCC 25922, E. faecalis ATCC 29212, P. aeruginosa ATCC 15422, and S. epidermidis KCTC 1917 were grown at 37 °C in Luria Bertani Broth (LB; 10 g/L bacto-tryptone, 5 g/L bacto-yeast extract, 10 g/L NaCl). The C. albicans […] was grown in a 6.7 g/L yeast nitrogen base (YNB) broth (Difco Laboratories) containing 2% D-glucose at 37 °C. The minimum inhibitory concentration (MIC) values of the peptides and their metal(II) complexes were determined using the microdilution broth method in 96-well microplates (Sarstedt, Nümbrecht, Germany). The serial dilutions of tested compounds (0–500 µM) were dissolved in LB medium for bacteria and YNB medium for C. albicans. The inoculum (2.5 µL) of each strain (10^8 CFU mL^−1) was placed into each well containing 200 µL of serial dilutions of the tested peptides and their metal(II) complexes. […] Bacteria and C. albicans incubated with metal ions were used as additional controls. After 24 h of incubation at 37 °C, the optical density at 600 nm of each well was measured using a multifunctional microplate reader (Synergy™ H1, BioTek, Winooski, VT, USA).

[5] = test system: P. aeruginosa ATCC 15422; type: cell-based, Pseudomonas aeruginosa; details: ATCC 15422, 24 h
Experimental: as §3

[6] = type: physicochemical
Text: Distribution profiles for Cu(II) and Zn(II) complexes calculated based on titrations are depicted in Figure 1. Complexes of L1 with Zn(II) were precipitated in the experimental concentration used for potentiometry above pH 9, while for L2 and L3 complexes were insoluble above pH 7. For copper complexes, precipitation was not observed at any experimental pH value.
Based on the experimental curves, it was possible to determine stability constants only for some complex species (ZnH3L and ZnHL for L2 and ZnH4L, ZnH3L and ZnHL for L3 ligand). […] Based on the competition diagram, Figure 3A, it could be assumed that all His residues are involved in the coordination of the Zn(II) ion directly or indirectly through the steric effect. The L3 ligand has the best affinity to metal ions already in an acidic environment and throughout the range of the tested pH. […] It could be concluded that although L1 and L2 have the same number of histidyl residues, their mutual position affects the effectiveness of metal ion binding at a given pH value. Above pH 6.5, L1 binds the Zn(II) with higher stability than that observed for L2.
Zinc complexes were not soluble above pH 9 and 7 for L1 and L2, L3, respectively. It was surprising that upon contact with the […] n-octanol phase, Zn(II)/L1 complexes formed in the water were precipitated, which prevented further measurement of the partition coefficient logPo/w. This undoubtedly proves the hydrophilic nature of Zn (II)/L1 complexes. In the case of zinc complexes of the remaining ligands, no precipitate was observed, so experimental values of logPo/w were determined. In comparison to free ligands, the lipophilicity of Cu(II) complexes is lower for all studies’ systems. For L2 and L3, and their Zn(II) complex forms, we observed a slight difference in the partition coefficient concerning the ligands themselves, a slight decrease in lipophilicity in the case of Zn(II)/L2 complexes, and an increase in the case of Zn(II)/L3. […]

[7] = test system: S. epidermidis KCTC 1917; type: cell-based, Staphylococcus epidermidis; details: KCTC 1917, 24 h
Experimental: as §3

[8] = test system: E. coli ATCC 25922; type: cell-based, Escherichia coli; details: ATCC 25922, 24 h
Experimental: as §3

[9] = test system: E. faecalis ATCC 29212; type: cell-based, Enterococcus faecalis; details: ATCC 29212, 24 h
Experimental: as §3

[10] = test system: C. albicans; parameters: method as in 2 sources, one per row (each row's own in cited_ref): ref [33] (a number printed in a supplementary file, which may have a reference list of its own: not looked up in the article's list) ||| ref [36] (a number printed in a supplementary file, which may have a reference list of its own: not looked up in the article's list); details: Table S7; ref [36]; cited from earlier work
Text: as §2

[11] = target: Nterm1 (position 1, -----KSHFEL); experiment: potentiometry; details: 25 ± 0.2 °C (298 K); I = 0.1 M (KCl); none (HCl/KOH titration under Ar); free peptide, no metal; ligand 1.0 × 10^-3 M (the Table 2 caption says 0.0005 M)
[12] = target: His14 (position 14, YGLLAHQ----); experiment: potentiometry; details: 25 ± 0.2 °C (298 K), I = 0.1 M (KCl), none (HCl/KOH titration under Ar)
[13] = target: Tyr9 (position 9, …); experiment: potentiometry; details: 25 ± 0.2 °C (298 K), I = 0.1 M (KCl), none (HCl/KOH titration under Ar)
[14] = target: His3 (position 3, ---KSHFELPA); experiment: potentiometry; details: 25 ± 0.2 °C (298 K); I = 0.1 M (KCl); none (HCl/KOH titration under Ar); free peptide, no metal; ligand 1.0 × 10^-3 M (the Table 2 caption says 0.0005 M)
[15] = target: Lys1 (position 1, -----KSHFEL); experiment: potentiometry; details: 25 ± 0.2 °C (298 K), I = 0.1 M (KCl), none (HCl/KOH titration under Ar)
[16] = target: His8 (position 8, …); experiment: potentiometry; details: 25 ± 0.2 °C (298 K); I = 0.1 M (KCl); none (HCl/KOH titration under Ar); free peptide, no metal; ligand 1.0 × 10^-3 M (the Table 2 caption says 0.0005 M)
[17] = target: Tyr9 (position 9, …); experiment: potentiometry; details: 25 ± 0.2 °C (298 K), I = 0.1 M (KCl), none (HCl/KOH titration under Ar); remark: listed apart in the source
[18] = target: His3 (position 3, ---KSHFELPH); experiment: potentiometry; details: 25 ± 0.2 °C (298 K); I = 0.1 M (KCl); none (HCl/KOH titration under Ar); free peptide, no metal; ligand 1.0 × 10^-3 M (the Table 2 caption says 0.0005 M)
[19] = target: His8 (position 8, …); experiment: potentiometry; details: 25 ± 0.2 °C (298 K); I = 0.1 M (KCl); none (HCl/KOH titration under Ar); free peptide, no metal; ligand 1.0 × 10^-3 M (the Table 2 caption says 0.0005 M); remark: listed apart in the source
[20] = target: Nterm1 (position 1, -----KSAFEL); experiment: potentiometry; details: 25 ± 0.2 °C (298 K); I = 0.1 M (KCl); none (HCl/KOH titration under Ar); free peptide, no metal; ligand 1.0 × 10^-3 M (the Table 2 caption says 0.0005 M)
[21] = target: Lys1 (position 1, -----KSAFEL); experiment: potentiometry; details: 25 ± 0.2 °C (298 K), I = 0.1 M (KCl), none (HCl/KOH titration under Ar)
[22] = Cu(II)-bound mononuclear complex (4N coordination), metal:ligand 1:1.1 and 1:2
[23] = free peptide, no metal, ligand 1.0 × 10^-3 M (the Table 2 caption says 0.0005 M)

In the case of `O=C(O)c1cn(C2CC2)c2cc(N3CCNCC3)c(F)cc2c1=O` [Ciprofloxacin], the MIC ([1]; ref [33]) is listed as 0.16 µg/mL (≈ 0.483 µM) and the MIC ([2]; ref [33]) is listed as 0.08 µg/mL (≈ 0.241 µM).

For Polymyxin, the MIC ([1]; ref [34]) is listed as 1 µg/mL, the MIC ([2]; ref [34]) is listed as 1 µg/mL and the MIC ([3]; ref [34]) is listed as greater than 16 µg/mL.

In the case of KSAFELPHYGLLAHQ [L1], the MIC [4] is reported as 436 ± 2.4 µM, the MIC [5] is reported as 285 ± 2.6 µM and the solubility in water [6] is reported as “soluble in water”. It also gave an MIC [7] of 132 ± 1.6 µM, an MIC [8] of 412 ± 2.4 µM and an MIC [9] of 145 ± 3.1 µM.

In the case of KSHFELPHYGLLAHQ [L3], the MIC [4] is reported as greater than 888 µg/mL, the MIC [5] is reported as 313 ± 2.5 µM and the solubility in water [6] is reported as “soluble in water”. The MIC [7] was 210 ± 2.6 µM, the MIC [8] was greater than 888 µg/mL and the MIC [9] was 241 ± 1.6 µM.

For `CNC(C)C1CCC(N)C(OC2C(N)CC(N)C(OC3OCC(C)(O)C(NC)C3O)C2O)O1` (stereo not shown) [Gentamicin], the MIC ([1]; ref [33]) is given as 0.31 µg/mL (≈ 0.649 µM), the MIC ([2]; ref [33]) is given as no less than 2.50 µg/mL and the MIC ([3]; ref [33]) is given as no less than 2.50 µg/mL.

In the case of Gramicidin S, the MIC ([1]; ref [35]) is given as 50 µg/mL, the MIC ([2]; ref [35]) is given as 50 µg/mL and the MIC ([3]; ref [35]) is given as 6.25 µg/mL.

For Clavanin B, the MIC ([2]; ref [36]) is given as 256 µg/mL, the MIC ([3]; ref [36]) is given as 256 µg/mL and the MIC [10] is given as 64 µg/mL.

For Clavanin D, the MIC ([2]; ref [36]) is listed as 64 µg/mL, the MIC ([3]; ref [36]) is listed as 128 µg/mL and the MIC [10] is listed as 16 µg/mL.

In the case of KSHFELPAYGLLAHQ [L2], the MIC [4] is reported as 469 ± 1.4 µM, the MIC [5] is reported as 302 ± 2.8 µM and the solubility in water [6] is reported as “soluble in water”. For the same molecule, the MIC [7] was 147 ± 1.6 µM, the MIC [8] was 416 ± 0.5 µM and the MIC [9] was 163 ± 2.2 µM.

Work on KSHFELPAYGLLAHQ [MUC7 15-mer peptide analogue L2 (KSHFELPAYGLLAHQ) (Homo sapiens (synthetic peptide); H8A)] yielded a pKa [11] of 7.42, a pKa [12, 22] of 6.46 and a pKa [12, 23] of 6.72. For the same molecule, the pKa [13, 22] was 9.43, the pKa [13, 23] was 9.58 and the pKa [14] was 5.62. It also gave a pKa [15, 22] of 10.06 and a pKa [15, 23] of 10.50.

KSHFELPHYGLLAHQ [MUC7 15-mer peptide L3 (KSHFELPHYGLLAHQ, mother peptide) (Homo sapiens (synthetic peptide))] gave a pKa [11] of 7.36, a pKa [16] of 6.34 and a pKa [17, 22] of 9.62. The pKa [17, 23] was 9.35, the pKa [12, 23] was 6.75 and the pKa [15, 22] was 9.85. For the same molecule, the pKa [15, 23] was 10.01 and the pKa [18] was 5.40.

With KSAFELPHYGLLAHQ [MUC7 15-mer peptide analogue L1 (KSAFELPHYGLLAHQ) (Homo sapiens (synthetic peptide); H3A)] the pKa [19] was 5.98, the pKa [17, 22] was 9.61 and the pKa [17, 23] was 9.44. For the same molecule, the pKa [12, 23] was 6.62, the pKa [20] was 7.59 and the pKa [21, 22] was 10.86. It also gave a pKa [21, 23] of 9.92.
